Results reported in patent US12637467B2, “Inhibitor of BTK and mutants thereof” (Newave Pharmaceutical Inc., priority 2019, dated 2026).
Entries after “also recorded” stand apart in the source; their conditions may differ.

Target: WT BTK (Homo sapiens, UniProt Q06187)
Assay: In vitro dialysis assay (irreversibility assay), WT BTK
Type: biochemical
Details: for Conclusion (WT BTK): reversible or irreversible inhibition after 24 hr dialysis; for Recovery after 24 h dialysis: 0.003 mM compound pre-incubated with 2 nM BTK for 2 hr, dialyzed 24 hr against buffer with 40 mM ATP, BTK activity vs non-dialyzed samples
Method: The compound-enzyme complex was dialyzed against the same buffer supplemented with 40 mM ATP for 24 hr. Cumulative dialysis factor >160,000×. After dialysis, the BTK activity was measured in the presence 40 mM ATP and 1 mM substrate peptide and compared to that in non-dialyzed samples. Assay buffer: 100 mM HEPES, pH7.5; 0.1% BSA, 0.01% Triton-X 100; 5 mM MgCl2; 1 mM DTT.

Chain of WT BTK (Q06187 whole entry): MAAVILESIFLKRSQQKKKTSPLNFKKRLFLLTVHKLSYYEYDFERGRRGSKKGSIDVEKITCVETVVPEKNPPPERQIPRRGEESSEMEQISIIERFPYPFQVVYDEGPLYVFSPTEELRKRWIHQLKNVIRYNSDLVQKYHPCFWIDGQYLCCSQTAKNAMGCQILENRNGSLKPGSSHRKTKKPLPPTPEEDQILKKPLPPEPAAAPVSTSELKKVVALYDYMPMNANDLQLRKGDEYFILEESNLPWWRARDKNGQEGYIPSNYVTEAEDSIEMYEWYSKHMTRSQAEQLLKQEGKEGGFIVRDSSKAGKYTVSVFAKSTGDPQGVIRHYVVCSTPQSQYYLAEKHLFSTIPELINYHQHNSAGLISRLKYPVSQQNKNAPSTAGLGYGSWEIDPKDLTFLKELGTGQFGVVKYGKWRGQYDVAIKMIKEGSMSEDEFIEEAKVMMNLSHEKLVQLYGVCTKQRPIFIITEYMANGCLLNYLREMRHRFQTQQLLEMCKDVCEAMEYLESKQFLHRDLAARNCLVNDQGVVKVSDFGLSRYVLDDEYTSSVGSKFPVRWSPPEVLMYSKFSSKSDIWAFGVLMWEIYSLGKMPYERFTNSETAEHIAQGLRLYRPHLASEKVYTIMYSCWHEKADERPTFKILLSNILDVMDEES

| SMILES | Conclusion (WT BTK) | Recovery after 24 h dialysis |
| --- | --- | --- |
| C=CC(=O)Nc1cc(Nc2nc(-c3ccnc(N4CCn5c(cc6c5CC(C)(C)C6)C4=O)c3CO)cn(C)c2=O)ccc1N1CCN(C2COC2)C[C@@H]1C [Example 3, (S)—N-(5-((6-(2-(7,7-dimethyl-1-oxo-1,3,4,6,7,8-hexahydro-2H-cyclopenta[4,5]pyrrolo[1,2-a]pyrazin-2-yl)-3-(hydroxymethyl)pyridin-4-yl)-4-methyl-3-oxo-3,4-dihydropyrazin-2-yl)amino)-2-(2-methyl-4-(oxetan-3-yl)piperazin-1-yl)phenyl)acrylamide] | irreversible inhibitors; also recorded: Irreversible/covalent inhibition | – |
| C=CC(=O)Nc1cc(Nc2nc(-c3ccnc(N4CCn5c(cc6c5CC(C)(C)C6)C4=O)c3C)cn(C)c2=O)ccc1N1CCN(C2COC2)C[C@@H]1C [Example 11, (S)—N-(5-((6-(2-(7,7-dimethyl-1-oxo-1,3,4,6,7,8-hexahydro-2H-cyclopenta[4,5]pyrrolo[1,2-a]pyrazin-2-yl)-3-methylpyridin-4-yl)-4-methyl-3-oxo-3,4-dihydropyrazin-2-yl)amino)-2-(2-methyl-4-(oxetan-3-yl)piperazin-1-yl)phenyl)acrylamide] | irreversible inhibitors; also recorded: Irreversible/covalent inhibition | – |
| C=CC(=O)Nc1cc(Nc2nc(-c3ccnc(N4CCn5c(cc6c5CC(C)(C)C6)C4=O)c3CO)cn(C)c2=O)ccc1N1CCC(N2CCOCC2)CC1C (stereo not drawn) [Example 12, N-(5-((6-(2-(7,7-dimethyl-1-oxo-1,3,4,6,7,8-hexahydro-2H-cyclopenta[4,5]pyrrolo[1,2-a]pyrazin-2-yl)-3-(hydroxymethyl)pyridin-4-yl)-4-methyl-3-oxo-3,4-dihydropyrazin-2-yl)amino)-2-(2-methyl-4-morpholinopiperidin-1-yl)phenyl)acrylamide] | irreversible inhibitors; also recorded: Irreversible/covalent inhibition | – |
| C=CC(=O)Nc1cc(Nc2nc(-c3ccnc(N4CCn5c(cc6c5CC(C)(C)C6)C4=O)c3C)cn(C)c2=O)ccc1N1CCC(N2CCOCC2)CC1C [Example 17, N-(5-[[6-(2-[4,4-dimethyl-9-oxo-1,10-diazatricyclo[6.4.0.0^[2,6]]dodeca-2(6),7-dien-10-yl]-3-methylpyridin-4-yl)-4-methyl-3-oxopyrazin-2-yl]amino]-2-[(2S)-2-methyl-4-(morpholin-4-yl)piperidin-1-yl]phenyl)prop-2-enamide] | Irreversible/covalent inhibition | – |
| C=CC(=O)Nc1cc(Nc2nc(-c3ccnc(N4CCn5c(cc6c5CC(C)(C)C6)C4=O)c3C)cn(C)c2=O)ccc1N1CCC(N2CCOCC2)CC1.Cl [Example 18, N-(5-[[6-(2-[4,4-dimethyl-9-oxo-1,10-diazatricyclo[6.4.0.0^[2,6]]dodeca-2(6),7-dien-10-yl]-3-methylpyridin-4-yl)-4-methyl-3-oxopyrazin-2-yl]amino]-2-[4-(morpholin-4-yl)piperidin-1-yl]phenyl)prop-2-enamide hydrochloride] | Irreversible/covalent inhibition | ~1% |
| C=CC(=O)Nc1cc(Nc2nc(-c3ccnc(N4CCn5c(cc6c5CC(C)(C)C6)C4=O)c3CO)cn(C)c2=O)ccc1N1CCC(N2CCC(F)(F)CC2)CC1 [Example 20, N-(2-[4,4-difluoro-[1,4′-bipiperidin]-1′-yl]-5-[[6-(2-[4,4-dimethyl-9-oxo-1,10-diazatricyclo[6.4.0.0^[2,6]]dodeca-2(6),7-dien-10-yl]-3-(hydroxymethyl)pyridin-4-yl)-4-methyl-3-oxopyrazin-2-yl]amino]phenyl)prop-2-enamide] | Irreversible/covalent inhibition | ~1% |
| C=CC(=O)Nc1cc(Nc2nc(-c3ccnc(N4CCn5c(cc6c5CC(C)(C)C6)C4=O)c3CO)cn(C)c2=O)ccc1N1CCC(N2CCN(C)CC2)CC1 [Example 21, N-(5-[[6-(2-[4,4-dimethyl-9-oxo-1,10-diazatricyclo[6.4.0.0^[2,6]]dodeca-2(6),7-dien-10-yl]-3-(hydroxymethyl)pyridin-4-yl)-4-methyl-3-oxopyrazin-2-yl]amino]-2-[4-(4-methylpiperazin-1-yl)piperidin-1-yl]phenyl)prop-2-enamide] | Irreversible/covalent inhibition | ~1% |
| C=CC(=O)Nc1cc(Nc2nc(-c3ccnc(N4CCn5c(cc6c5CC(C)(C)C6)C4=O)c3CO)cn(C)c2=O)ccc1N1CCN(C2CCC(F)(F)CC2)C[C@@H]1C [Example 23, N-[2-[(2S)-4-(4,4-difluorocyclohexyl)-2-methylpiperazin-1-yl]-5-[[6-(2-[4,4-dimethyl-9-oxo-1,10-diazatricyclo[6.4.0.0^[2,6]]dodeca-2(6),7-dien-10-yl]-3-(hydroxymethyl)pyridin-4-yl)-4-methyl-3-oxopyrazin-2-yl]amino]phenyl]prop-2-enamide] | Irreversible/covalent inhibition | ~1% |
| C=CC(=O)Nc1cc(Nc2nc(-c3ccnc(N4CCCn5c(cc6c5CC(C)(C)C6)C4=O)c3CO)cn(C)c2=O)ccc1N1CCN(C2COC2)C[C@@H]1C [Example 29, N-(5-[[6-(2-[4,4-dimethyl-9-oxo-1,10-diazatricyclo[6.5.0.0^[2,6]]trideca-2(6),7-dien-10-yl]-3-(hydroxymethyl)pyridin-4-yl)-4-methyl-3-oxopyrazin-2-yl]amino]-2-[(2S)-2-methyl-4-(oxetan-3-yl)piperazin-1-yl]phenyl)prop-2-enamide] | Irreversible/covalent inhibition | ~1% |
| C=CC(=O)Nc1cc(Nc2nc(-c3ccnc(N4CCc5c(sc6c5CCC6(C)C)C4=O)c3CO)cn(C)c2=O)ccc1N1CCN(C2COC2)C[C@@H]1C [Example 35, N-(5-[[6-(2-[5,5-dimethyl-9-oxo-7-thia-10-azatricyclo[6.4.0.0^[2,6]]dodeca-1(8),2(6)-dien-10-yl]-3-(hydroxymethyl)pyridin-4-yl)-4-methyl-3-oxopyrazin-2-yl]amino]-2-[(2S)-2-methyl-4-(oxetan-3-yl)piperazin-1-yl]phenyl)prop-2-enamide] | Irreversible/covalent inhibition | ~1% |
| C=CC(=O)Nc1cc(Nc2nc(-c3ccnc(N4CCc5c(sc6c5CCCC6)C4=O)c3CO)cn(C)c2=O)ccc1N1CCN(C2COC2)C[C@@H]1C [Example 36, N-[5-([6-[3-(hydroxymethyl)-2-[6-oxo-8-thia-5-azatricyclo[7.4.0.0 ^[2,7]]trideca-1(9),2(7)-dien-5-yl]pyridin-4-yl]-4-methyl-3-oxopyrazin-2-yl]amino)-2-[(2S)-2-methyl-4-(oxetan-3-yl)piperazin-1-yl]phenyl]prop-2-enamide] | Irreversible/covalent inhibition | ~1% |
